Like-named read-outs stand apart in the source and are kept apart here.
Experiments:
L929 = test: MTT cytotoxicity assay, L929 fibroblasts (and selectivity index); assay type: cell-based, mouse; conditions: for SI (selectivity index): IC50 L929 divided by average IC50 of the breast cancer cell lines
Protocol: (§1) The cytotoxicity of 1–11CA was assessed against human breast cancer MCF-7 and MDA-MB-231 cells, and non-tumorigenic adherent mouse fibroblast connective tissue L929 cells using the MTT assay after 24 and 72 h (Tables S5 ^† and Table 1, respectively).
(§2) Then, necessary dilutions were made using the supplement DMEM, to prepare the range of tested concentrations. Since DMSO was used to solubilize the compounds, a supplemented DMEM + DMSO (at the same percentage as in the sequential dilutions) was considered as a control in the 3-[4,5-dimetylthiazole-2-yl]-2,5-diphenyltetrazolium bromide (MTT) assay.
(§3) L929, MCF-7, and MDA-MB-231 cell lines were cultured in DMEM supplemented with 10% (v/v) FBS and 1% (v/v) of penicillin–streptomycin. The cells were incubated in a humidified chamber at 37 °C under saturated air with a 5% CO2 atmosphere. Cells were passed at 80%–90% of confluency with 0.25% (w/v) trypsin and the cell culture media was changed every 2–3 days.
(§4) The compounds were tested on two breast cancer cell lines (MCF-7 and MDA-MB-231) and L929 fibroblasts, used as a reference for the safety evaluation according to ISO 10993-1:2009 “Biological evaluation of medical devices”. Cells were seeded on sterile 96-well plates at 50 000 cells per well (L929) and 20 000 cells per well (MCF-7 and MDA-MB-231) in supplemented DMEM medium (100 μL) for 24 h. The culture medium was removed and new media containing different concentrations of the compounds (0–1000 μM) was added to the wells (100 μL). Control cells were incubated under the same conditions in the absence of a compound. Cells were incubated for 24 and 72 h under the same conditions described above. Then, the medium was removed, and the cells were incubated with 3-(4,5-dimethylthiazol-2-yl)-2,5-diphenyltetrazolium bromide (MTT; 0.5 mg mL^−1) for 3 h. After this time, the medium was removed, and formazan crystals were solubilized with DMSO (100 μL per well). The absorbance in each well was read on a SynergyTM HT Multimode microplate reader (BioTek Instruments; Winooski, VT, USA) at 570 and 630 nm (for background correction), and the cell viability was calculated according to the following equation (eqn (1)):1 [drawing 3] where OD570(sample) and OD630(sample) are the optical densities of the solutions containing the compounds and OD570(control) and OD630(control) are controls without compound.
(§5) Each apoptosis value determination represents the mean ± standard deviation of 2 independent assays. The IC50 values were obtained using GraphPad Prism software and ANOVA (analysis of variance) was performed to determine the statistical difference between the IC50 values of different cell lines.

MDA-MB-231 = test: MTT cytotoxicity assay, MDA-MB-231 cells; assay type: cell-based, human
Protocol: as §1, §2, §3, §4, §5

MCF-7 = test: MTT cytotoxicity assay, MCF-7 cells; assay type: cell-based, human
Protocol: as §1, §2, §3, §4, §5

[1] = Solubility in water (ICP-MS); conditions: 25 °C, limit of detection = 5 ppt
Protocol: sonication, the mixtures were stirred at 25 °C for 1 h. The saturated solutions were filtered
to remove any insoluble solids, dissolved in 0.5 mL of MilliQ water, and analyzed using
ICP-MS. Samples were submitted to acidic digestion with 2 mL of concentrated HNO3
min to heat to 100°C and keep at 100°C for 60 min. After the digestion, the sample
volumes were precisely adjusted to 5 mL with MilliQ water. Samples were further diluted
30 times with 2% HNO3 solution and their Ru content was analyzed by ICP-MS using
standard mode on NexIon 350 D ICP-MS instrument (PerkinElmer). Yttrium was added
as an internal standard at a concentration of 2 ppb to all the solution and Ru quantitation
was performed using an external calibration curve with standards in the 0.05-50 ppb

[2] = n-octanol/water partition coefficient (shake-flask, ICP-MS)
Protocol: The saturated solutions were filtered
(DigiPREP Jr. 15ml, 40 Pos, SCP Science). The digestion program was the following: 15
After the digestion, the sample
Samples were further diluted
range. All measurements were performed in triplicates.
lipophilicity of a compound. This assay was performed following the Shake-flask method
organic and aqueous phase. Aliquots of each phase were taken and analyzed separately
range. The partition coefficient was calculated as P!"=
respectively. All measurements were performed in triplicates.

[3] = Molar conductivity in acetonitrile; assay type: physicochemical; conditions: 1 mM in acetonitrile, 25 °C
Protocol: The molar conductivity (ΛM, reported as S·cm2·mol–1) of solutions of 11CA in acetonitrile (1 mM) were measured in a Radiometer Copenhagen CDM92 equipped with a conductivity cell CDC641T glass platinum electrode at room temperature (25 °C). The conductivity of the pure solvent was used as standard controls.
Table S3. Solubility in water at 25 °C, n-octanol/water partition coefficient and molar conductivity of the 11CA. * below limit of detection = 5 ppt.

ctDNA = test: Circular dichroism / induced circular dichroism with calf thymus DNA; conditions: DNA, 24 h, 37 °C
Protocol: Calf thymus (ct) DNA (Merck®) was used to perform the circular dichroism assay to detect conformational changes in the ctDNA induced by the compounds. CD spectral data was collected on a Chirascan™ V100 (Applied Photophysics) spectropolarimeter equipped with a large area Avalanche photodiodes detector and computer-controlled thermoelectrical cell holder using a 1 cm path length quartz cuvette. CD spectra of ctDNA in the absence and presence of different concentrations of 11Cl were recorded at wavelengths ranging from 320 to 190 nm under constant nitrogen flush at 25 °C. For each CD spectrum, the number of scans was set to 5, and spectral data were collected at 0.1 ms intervals. Additionally, methyl green (MG) and 4′,6-diamidino-2-phenylindole (DAPI), and propidium iodide (PI) were analyzed as minor and major groove binders and as an intercalator, respectively, to help identify the binding mode of 11Cl to DNA. Samples were prepared in 10 mM Tris-HCl buffer (pH 7.6) with 1 mM EDTA. The concentration of ctDNA was fixed at 100 μM (concerning base pairs) and the ctDNA to 11Cl ratio was varied between 0 and 1. The samples were incubated for 24 h at 37 °C and then analyzed in the CD spectropolarimeter.

[4] = 24 h exposure, MTT, read-out: IC50 (µM) (average ± standard deviation) 24 h L929
[5] = 72 h exposure, MTT, read-out: IC50 (μM) (average ± standard deviation) 72 h L929
[6] = 24 h exposure, MTT, read-out: IC50 (µM) (average ± standard deviation) 24 h MDA-MB-231
[7] = 72 h exposure, MTT, read-out: IC50 (μM) (average ± standard deviation) 72 h MDA-MB-231
[8] = 24 h exposure, MTT, read-out: IC50 (µM) (average ± standard deviation) 24 h MCF-7
[9] = 72 h exposure, MTT, read-out: IC50 (μM) (average ± standard deviation) 72 h MCF-7
[10] = sodium counteranion salts, 24 h, read-out: IC50 in L929 cell line Mean ± SD 24 h
[11] = sodium counteranion salts, 72 h, read-out: IC50 in L929 cell line Mean ± SD 72h
[12] = sodium counteranion salts, 24 h, read-out: IC50 in MDA-MB-231 cell line Mean ± SD 24 h
[13] = sodium counteranion salts, 72 h, read-out: IC50 in MDA-MB-231 cell line Mean ± SD 72h
[14] = sodium counteranion salts, 24 h, read-out: IC50 in MCF-7 cell line Mean ± SD 24 h
[15] = sodium counteranion salts, 72 h, read-out: IC50 in MCF-7 cell line Mean ± SD 72h

Compound	SI (selectivity index) (L929; 24 h)	IC50 (L929; [4])	SI (selectivity index) (L929; 72 h)	IC50 (L929; [5])	IC50 (MDA-MB-231; [6])	IC50 (MDA-MB-231; [7])	IC50 (MCF-7; [8])	IC50 (MCF-7; [9])	IC50 (L929; [10])	IC50 (L929; [11])	IC50 (MDA-MB-231; [12])	IC50 (MDA-MB-231; [13])	IC50 (MCF-7; [14])	IC50 (MCF-7; [15])	further results
Cc1c(C)c(C)[c-](C)c1C.[Cl][Ru+]([PH]12CN3CN(CN(C3)C1)C2)[PH]12CN3CN(CN(C3)C1)C2 [Compound 2]	1.6	537 ± 29 µM	1.1	64 ± 4 µM	286 ± 7 µM	63 ± 3 µM	403 ± 9 µM	51 ± 6 µM							
C[NH+](C)Cc1ccccc1.[Cl-].[Cl][Ru]([Cl])[PH]12CN3CN(CN(C3)C1)C2 [Compound 3]	1.8	749 ± 45 µM	1.5	84 ± 5 µM	357 ± 7 µM	60 ± 3 µM	463 ± 19 µM	51 ± 4 µM							
Cc1ccc(C(C)C)cc1.[Br][Ru]([Br])[PH]12CN3CN(CN(C3)C1)C2 [Compound 6]	1.8	670 ± 60 µM	1.2	82 ± 3 µM	388 ± 12 µM	63 ± 5 µM	376 ± 15 µM	74 ± 7 µM							
Cc1ccc(C(C)C)cc1.O=C1[O][Ru]([PH]23CN4CN(CN(C4)C2)C3)[O]C1=O [Compound 7]		570 ± 18 µM		104 ± 4 µM	513 ± 16 µM	83 ± 5 µM	407 ± 17 µM	62 ± 4 µM							
Cc1ccc(CCC(=O)O)cc1.O=C1[O][Ru]([PH]23CN4CN(CN(C4)C2)C3)[O]C1=O [Compound 8]		572 ± 33 µM		50 ± 3 µM	284 ± 7 µM	50 ± 2 µM	213 ± 8 µM	41 ± 5 µM							
Cc1ccccc1.[Cl][Ru]([Cl])[PH](c1ccccc1)(c1ccccc1)c1ccccc1 [Compound 9]	2.3	544 ± 12 µM	1.5	70 ± 4 µM	164 ± 2 µM	44 ± 3 µM	304 ± 19 µM	52 ± 7 µM							Solubility (μM) [1]: 65 ± 8 µM; Solubility (μg/mL) [1]: 34 ± 4 µg/mL
Cc1cccc[c]1[Ru+]([Cl])([PH](c1ccccc1)(c1ccccc1)c1ccccc1)[PH](c1ccccc1)(c1ccccc1)c1ccccc1.F[B-](F)(F)F [Compound 11BF4]	0.8	3.8 ± 0.4 µM	6.8	1.13 ± 0.05 µM	4.3 ± 0.4 µM	0.19 ± 0.01 µM	5.4 ± 0.6 µM	0.14 ± 0.01 µM							LogPow [2]: 1.60 ± 0.20; Solubility (μM) [1]: 5 ± 2 µM; Solubility (μg/mL) [1]: 4 ± 1 µg/mL; Conductivity (molar conductivity) [3]: 124 S·cm2/mol
F[B-](F)(F)F.[Na+] [NaBF4, reference compound]									923 ± 77 µM	386 ± 49 µM	> 2000 µM	347 ± 19 µM	> 2000 µM	343 ± 39 µM	
c1ccc([B-](c2ccccc2)(c2ccccc2)c2ccccc2)cc1 [NaBPh4, reference compound]									186 ± 11 µM	55 ± 4 µM	441 ± 61 µM	149 ± 13 µM	217 ± 44 µM	102 ± 14 µM	
[Cl-].[Na+] [NaCl, reference compound]									782 ± 55 µM	274 ± 31 µM	> 2000 µM	398 ± 38 µM	> 2000 µM	280 ± 33 µM	
O=[N+]([O-])[O-].[Na+] [NaNO3, reference compound]									> 1000 µM	331 ± 57 µM	> 2000 µM	334 ± 23 µM	> 2000 µM	262 ± 38 µM	
O=S(=O)([O-])C(F)(F)F.[Na+] [NaOTf, reference compound]									> 1000 µM	159 ± 20 µM	> 2000 µM	354 ± 27 µM	> 2000 µM	279 ± 30 µM	
F[P-](F)(F)(F)(F)F.[Na+] [NaPF6, reference compound]									759 ± 77 µM	297 ± 24 µM	> 1000 µM	329 ± 17 µM	> 2000 µM	311 ± 27 µM	
[F][Sb-]([F])([F])([F])([F])[F].[Na+] [NaSbF6, reference compound]									693 ± 53 µM	180 ± 22 µM	689 ± 61 µM	236 ± 13 µM	> 1000 µM	234 ± 24 µM	
CC[N+](C)(CC)CCC[n+]1c(-c2ccccc2)c2cc(N)ccc2c2ccc(N)cc21.[I-].[I-] [PI, propidium iodide]															CD band 220 nm (hydrogen bonding), intensity change (ctDNA): Unchanged; CD band 220 nm (hydrogen bonding), wavelength shift (ctDNA): Blue shift; CD band 246 nm (helicity), intensity change (ctDNA): Hyperchromic; CD band 246 nm (helicity), wavelength shift (ctDNA): Unchanged; CD band 268−280 nm (base-pair stacking interactions), intensity change (ctDNA): Hyperchromic; CD band 268−280 nm (base-pair stacking interactions), wavelength shift (ctDNA): Unchanged
